Each structure is given as a SMILES string. Converted amounts (≈) assume the structure as drawn. “And” between values parts separate entries of the source, which are not always exact repeats. Equal entries are not always repeated. Where two headings read alike, the source gives them in different places.

One data set concerns Cryptococcus neoformans. As to the kind of experiment: In vitro susceptibility testing (MIC). It counts as cell-based.
The test system of data set [1] is synthesis of GlcCer in mammalian (J774) cells. As to the kind of experiment: In vivo labeling with 3H palmitate, TLC of GlcCer. Particulars: 3H palmitate labeling. It counts as cell-based, murine.
Data set [2] has as its system C. neoformans. As to the kind of experiment: In vitro killing assay (time-kill, CFU). Format: cell-based, Cryptococcus neoformans. The procedure:
At the illustrated time points, aliquots were taken and diluted and 100 μL was plated onto yeast peptone dextrose (YPD) plates. YPD plates were incubated in a 30° C. incubator and, after 72 hours, colony forming units (CFU) were counted and recorded.

The nature of the next data set: Solubility. Particulars: at 1 mg/ml concentration. It counts as physicochemical.
The test system of data set [3] is C. neoformans H99. The experiment in a line: Animal studies for cryptococcosis (intranasal infection). Format: in vivo, mice.
Another data set concerns A549 cell line. As to the kind of experiment: In vitro toxicity. Format: cell-based.
The next data set has as its system L2 cell line. The experiment in a line: In vitro toxicity. It counts as cell-based.
In the next data set the test system is Candida albicans SC-5314. As to the kind of experiment: Animal studies for candidiasis (intravenous infection). Format: in vivo, mice. Here is the method:
For survival studies, 8-week old CBA/J female mice (Jackson Laboratory) were used. Eight mice per treatment or control group were used. Mice were infected by intravenous inoculation of 100 μL containing 1×10^5 cells of Candida albicans SC-5314 strain. […] Untreated mice, received 100 μL of PBS/0.4% DMSO. Mice were feed ad-libitum and monitored closely for sign of discomfort. At the end of the survival study, tissue burden culture was performed in mice that survived the infection. Mice were sacrificed and their organs were extracted and homogenized in 10 ml sterile PBS using homogenizer. Organ homogenates were diluted 10 times in PBS, and 100 μL was plated on YPD agar plates and incubated at 30° C. for 72 hours for CFU count.

Data set [4] concerns C. neoformans sphingolipids. The experiment in a line: Sphingolipid levels by TLC and lipid mass spectrometry. It counts as cell-based, Cryptococcus neoformans. To be noted: TLC, confirmed by mass spectrometry. The procedure:
Labeling fungal cells. […] Samples without drug were included as control. Before lipid extraction, lipid internal standards (C17 ceramide and C17 sphingosine) were added. Lipids were then extracted following the methods of […] and Bligh and Dyer and one fourth of the sample was aliquoted for determination of the inorganic phosphate. The remainder of the sample was subjected to base hydrolysis and then analyzed using LC/MS. Results were normalized with the inorganic phosphate levels.

A further data set deals with Candida spp. The experiment in a line: In vitro susceptibility testing. It counts as cell-based. To be noted: most Candida spp examined.
Data set [5] relates to P. murina.
Data set [6] concerns P. murina. The source holds these as a separate data set.
Data set [7] in a line: In vitro toxicity, MTT assay. Particulars: mouse, J774.16 macrophage cells.
Data set [8] is described as follows: In vivo toxicity in uninfected mice. Particulars: treated daily for 60 days.
The test system of data set [9] is C. neoformans. As to the kind of experiment: Resistance assay, daily passages in sub-MIC drug. To be noted: 15 days of passages below the MIC.
In data set [10] the test system is synthesis of GlcCer in C. neoformans cells. The experiment in a line: In vivo labeling with 3H palmitate, TLC of GlcCer. To be noted: 3H palmitate labeling.
The test system of the next data set is C. neoformans (H99). As to the kind of experiment: Transmission electron microscopy of treated cells. To be noted: 4 μg/mL, 6 hours.
The test system of data set [11] is C. neoformans. As to the kind of experiment: Synergistic assay (fractional inhibitory index, FIC).
The test system of data set [12] is P. murina. As to the kind of experiment: Animal studies for pneumocystosis, CD4-depleted mice. Particulars: mouse, in vivo.
Data set [13] deals with C. neoformans H99. As to the kind of experiment: Comparison studies, intravenous (CNS) cryptococcosis survival. Format: in vivo, mice. The procedure: For survival studies, 4-week old CBA/J female mice (Jackson Laboratory, Bar Harbor, Me.) were used. Total of forty mice were infected by tail vein injection of 200 μL containing 10^5 cells of C. neoformans H99 and were randomly separated into 5 groups (8 mice per group). Treatment started within 2 hours of infection. The treated mice received an intraperitoneal injection of 1.2 mg/kg/day of BHBM, 1, amphotericin B or 10 mg/kg/day of fluconazole in 100 μL final volume of PBS containing 0.4% DMSO. Untreated mice, received 100 μL of PBS/0.4% DMSO. Mice were fed ad-libitum and monitored closely for sign of discomfort and meningitis. Mice showing abnormal gait, lethargy, tremor, significant loss of body weight, or inability to reach water or food were sacrificed and survival was counted until that day.

Another data set has as its system Pneumocystis murina. The experiment in a line: In vitro testing by ATP content (luciferin-luciferase). To be noted: read-out: percentage inhibition of ATP.
In the next data set the test system is Pneumocystis jiroveci. The description is as above. To be noted: read-out: percentage inhibition of ATP.

Take `O=C(NN=Cc1ccc(O)c(Br)c1)c1cccc(Br)c1` [Compound 1, 3-bromo-N′-(3-bromo-4-hydroxybenzylidene) benzohydrazide]: in the data set with Cryptococcus neoformans, the “antifungal activity of derivatives” value is on record as “improved activity”. The MFC in the data set with Cryptococcus neoformans (Cryptococcus neoformans, read-out: MFC (minimum fungicidal concentration)) was 1.2 µg/mL (≈ 3.01 µM). Further, the entries for the “inhibition of the synthesis of GlcCer” value in data set [1], in [1] (listed as #5285729) and in data set [10] were “no significant changes”, “not in mammalian (J774) cells” and “significantly inhibit the synthesis of GlcCer”, respectively. For the same compound, the type of killing result in the data set on C. neoformans [2] (time-kill assay) is “time-dependent killing”. The compound further showed a dead cells with C. neoformans [2] (within 24 hours) of 100%. In “Solubility”, this compound had a DMSO required of 50%. The compound also returned a mice surviving infection in the data set on C. neoformans H99 [3] (1.2 mg/Kg/day intraperitoneally, up to 60 days) of 70%. The “fungal burden in brain” value in the data set on C. neoformans H99 [3] (1.2 mg/Kg/day, day 60) is “No C. neoformans cells were found in brains”. The “fungal burden in lung” value in the data set on C. neoformans H99 [3] (1.2 mg/Kg/day, day 60, compared to infected untreated mice) was “decrease the fungal burden in the lung”. The brain histology result with C. neoformans H99 [3] (day 60) was “no fungal cells and normal structure”. Besides, the lung histology entry in the data set on C. neoformans H99 [3] (day 60) is recorded as “granulomatous response limited in few areas of the lung”. Besides, the toxicity result with A549 cell line and with L2 cell line was “slight to moderate toxicity” in each case. In the data set on Candida albicans SC-5314 (1.2 mg/kg/day intraperitoneally, after 21 days of infection), this compound returned a mice alive of 75%. The “clearance of infection (tissue burden)” value in the data set with Candida albicans SC-5314 (day 21, surviving treated mice) was “able to clear C. albicans infection”. The sphingosine level entry in [4] was “accumulation of sphingosines”. In the data set on Candida spp, the in vitro susceptibility result was “resistant”. In addition, the “toxicity in mice immunosuppressed with corticosteroids” value with P. murina [5] is given as “some toxicity”. For the same compound, in the data set with P. murina [5] (1.25 mg/kg/day and 12.5 mg/kg/day for 14 days), the “asci and troph burdens vs vehicle” value is “significantly reduced”. For the same compound, in the data set on P. murina [5] (1.25 and 12.5 mg/kg/day, 14 days), the “survival vs control steroid negative controls” value is “did not increase survival”. In the data set with P. murina [6] (14 days of treatment), the survival entry was “improved survival”. The “number of asci in the lung” value with P. murina [6] (day 14) is reported as “significantly decreased”. This compound had an EC50 at 48 h in data set [7] of 50 µg/mL (≈ 126 µM). For the same compound, the “appearance, weight, physical activity and behavior” value in [8] is reported as “appeared normal”. Also, in the data set with C. neoformans [9], the development of resistance result was “do not develop resistance”. For the same compound, the “number of vacuoles per μm^2 of cell surface area” value in the data set with C. neoformans (H99) worked out at 0.93±0.54. The FIC index with C. neoformans [11] (combined with Amphotericin B) stood at 0.77; in the data set on C. neoformans [11] (combined with Fluconazole), 0.47; in the data set with C. neoformans [11] (combined with caspofungin) it was 1. Moreover, the interaction entry with C. neoformans [11] (combined with Tunicamycin) is listed as “additive”. Further, the signs of toxicity result in the data set with P. murina [12] is on record as “no signs of toxicity”.
In the data set with C. neoformans H99 [13] (IP, 1.2 mg/kg/day BHBM, 1, amphotericin B, 10 mg/kg/day fluconazole), `C[C@@H]1[C@H](O)[C@@H](C)/C=C/C=C/C=C/C=C/C=C/C=C/C=C/[C@H](O[C@@H]2O[C@H](C)[C@@H](O)[C@H](N)[C@@H]2O)C[C@@H]2O[C@](O)(C[C@@H](O)C[C@@H](O)[C@H](O)CC[C@@H](O)C[C@@H](O)CC(=O)O[C@H]1C)C[C@H](O)[C@H]2C(=O)O` [Amphotericin B] showed an average survival of 23.5 ± 6.5 days.
Turning to `OC(Cn1cncn1)(Cn1cncn1)c1ccc(F)cc1F` [fluconazole], the average survival in the data set with C. neoformans H99 [13] (mouse, in vivo) was 10 ± 2 days and 10.0 ± 2.0 days.
For the compound `N=C(N)c1ccc(OCCCCCOc2ccc(C(=N)N)cc2)cc1` [Pentamidine, reference compound], the inhibition at 1 µg/mL in the data set on Pneumocystis murina (24 h) was 78.2%; in the data set on Pneumocystis murina (48 h) it was 80.3%; in the data set on Pneumocystis murina (72 h) it was 74.1%; with Pneumocystis murina (96 h) it was 27.8%; in the data set with Pneumocystis jiroveci (24 h), 45.7%; in the data set with Pneumocystis jiroveci (48 h), 86.5%. For the same compound, the inhibition at 1 µg/mL was 84.2% in the data set on Pneumocystis jiroveci (72 h) and 81.4% in the data set with Pneumocystis jiroveci (96 h).
